Source: a melting point compilation (Tetko et al.; mined from patent text by program, amines drawn as free bases though some values may be those of a salt)

Row | SMILES | melting point
1 | O=C(O)c1cc([N+](=O)[O-])c(-c2ccncc2)[nH]c1=O | > 300 °C
2 | CC(C)(C#N)c1cc(C(C)(C)C#N)cc(C(C)(C)n2cncn2)c1 | 185 to 188 °C
3 | O=C1Nc2cccc(-c3cnc4ccccc4c3)c2C12COc1cc3c(cc12)OCCO3 (stereo unspecified) | 221 to 224 °C
4 | FC(F)(F)c1cc(-c2ccccc2)nc(N2CCNCC2)n1 | 130 °C
5 | CCCc1nc(NN)nc(O)c1Cc1ccc(-c2ccccc2C#N)cc1 | 191 °C
6 | CCOP(=O)(OCC)C(F)(F)c1ccc(CN(Cc2ccc(C(F)(F)P(=O)(OCC)OCC)cc2)C(=O)c2ccccc2)cc1 | 87 to 89 °C
7 | CC1=CC(O)C(OC(=O)c2ccc(Cl)cc2)C(C)(C)CC1=O (stereo unspecified) | 114 to 116 °C
8 | O=C(CCCOc1ccc(-c2ccc(Cl)cc2)cc1)NO | 168 to 170 °C
9 | O=C(CC1CCCCCC1)Nc1cn(CCO)c2cccc(Cl)c12 | 79 to 83 °C
10 | Cc1ccc(C2SC(=O)NC2=O)cc1C (stereo unspecified) | 121 to 122 °C
11 | O=c1ncc(I)cn1COc1ccc(Cl)cc1 | 216 °C
12 | CC(c1oc2ccccc2c(=O)c1-c1cccc(F)c1)n1ncc2c(Cl)ncnc21 (stereo unspecified) | 197 to 201 °C
13 | c1ccc(-c2ccc(C34CCCN(CC3)C4)nn2)cc1 (stereo unspecified) | 133 to 134 °C
14 | Nc1ccccc1-c1nc2ccccc2c(=O)o1 | 163 to 165 °C
15 | CCOC(=O)C1=C(C)N(Cc2ccccc2)C(C)=C(C(=O)OCC)C1c1ccc(Br)cc1 | 168 to 169 °C
16 | O=C1CCCc2nc3cc(F)ccc3c(NCc3ccccc3C(F)(F)F)c21 | 146 to 151 °C
17 | COc1ccc2c(Cc3ccco3)nnc(-c3ccccc3)c2c1 | 128 to 129 °C
18 | NC1CC(=O)N(Cc2ccccc2)C1=O (stereo unspecified) | 74 to 77 °C
19 | FC(F)(c1ccccc1)c1nc(-c2ccncc2)cs1 | 54.5 to 55.5 °C
20 | Cc1ccc(S(=O)(=O)OCC2Cc3ccccc3C2)cc1 | 95 to 97 °C
21 | CC(C)(C)C(NC(=O)c1ccc(Cl)cc1)NC(=NC#N)Nc1cccc(C(F)(F)F)c1 (stereo unspecified) | 184 to 186 °C
22 | CSc1cc2c(cc1C(F)(F)F)N(C(=O)Nc1ccc(C(=O)Nc3cccnc3)cc1)CC2 | > 200 °C
23 | CON=C(N)Nc1nc(C)nc(OC)n1 | 142 °C
24 | COc1ccc(S(N)(=O)=O)cc1C(=O)NCc1ccc(OCCN(C)C)cc1 | 122 to 123 °C

Row | SMILES | melting point
25 | ClCCCOc1ccc(-c2cnc(CSCCOc3ccccc3)o2)cc1 | 71 to 73 °C
26 | CC1=CCC2(C)C(CCC3C4CCC(O)C4(C)CCC32)C1 (stereo unspecified) | 128 to 130 °C
27 | Cc1ccc(C)c(COc2ccc(N)nn2)c1 | 109 to 111 °C
28 | CCOC(=O)c1cn(-c2nc(SC(C)C)nc(C(F)(F)F)c2I)nc1C(F)(F)F | 107 to 108 °C
29 | CC(NC(=O)c1cccnc1Oc1cccnc1)c1ccc(Cl)s1 (single isomer, unassigned; (+)) | 83 to 85 °C
30 | CN1C(=O)CC[C@]2(C)c3ccc(Sc4nc5cc([N+](=O)[O-])ccc5s4)cc3CC[C@@H]12 | 96 to 100 °C
31 | Cc1cc(OCCNC(=O)C2Cc3ccccc3N2S(=O)(=O)c2ccc(-c3cc(C(F)(F)F)ccc3Cl)cc2)ccc1CC(=O)O (stereo unspecified) | 110 to 115 °C
32 | CN(CCO)c1ccc(C=O)cc1 | 72 °C
33 | CC1CCC2(CC1)OCCN2C(=O)C(Cl)Cl (stereo unspecified) | 119 to 120 °C
34 | O=C1CNC(=O)C(Cc2cccc(NCc3ccccc3)c2)N1 (stereo unspecified) | 160 to 161 °C
35 | CC(C)(C)C(=O)Nc1ccncc1-c1n[nH]c2ccccc12 | 232 to 233 °C
36 | O=C(c1ccc(Br)s1)c1c(F)c(F)cc(F)c1F | 51 to 54 °C
37 | N#CCNSc1ccc(Cl)cc1 | 74 to 76 °C
38 | Cn1c(C#N)ccc1-c1cc(F)c2c(c1)C1(CC1)C(=O)N2 | 228 to 231 °C
39 | CCOC(=O)C(CC(=S)c1ccc(-c2ccccc2)cc1)SC(C)=O (stereo unspecified) | 71.5 to 72.5 °C
40 | Cn1c(=S)n(C)c(=O)n(-c2ccc(F)cc2F)c1=O | 156 to 159 °C
41 | Cc1csc2ncc(C(O)CC(C)c3ccccc3)n12 (stereo unspecified) | 135 to 136 °C
42 | Cc1ccc(C#N)nc1 | 72 to 74 °C
43 | CCCCOC(=O)C(N)c1ccc(OCC(O)CNC(C)C)nc1 (stereo unspecified) | 85 to 87 °C
44 | Cc1ccc2c(NCc3ccc(NC(=O)c4ccc(F)cc4)cc3)nc(NCCc3ccccn3)nc2c1 | 112 to 115 °C
45 | Cc1c(-c2ccccc2)oc2c(OCC3CO3)cccc2c1=O (stereo unspecified) | 128 to 129 °C
46 | COc1ncc(Cl)cc1C(O)C(N)=O (stereo unspecified) | 110 to 113 °C
47 | Cc1cc(=O)n2nc(SCc3ccc(Cl)cc3)sc2n1 | 138 to 140 °C
48 | CC(C)c1nsc(N2CCN(C(=O)Nc3noc4ccccc34)CC2)n1 | 178 to 179 °C

Second part, the molecule after the results:

Row | melting point | SMILES
49 | > 250 °C | CCOC(=O)c1cnc2nc(C(F)(F)F)ccc2c1O
50 | 120 to 122 °C | CCOCC1=C(C(=O)OCC)C(c2cccc([N+](=O)[O-])c2)C(C(=O)OCC)=C(C)N1 (stereo unspecified)
51 | 165 to 167 °C | Cc1c(C)c2c(c(C)c1NC(=O)c1ccc3c(c1)OCO3)C(c1ccc(C(C)C)cc1)C(C)(C)O2 (stereo unspecified)
52 | > 250 °C | Nc1nc(N)c2cc(CCc3ccc(C(=O)N[C@@H](CCC(=O)O)C(=O)O)cc3)cnc2n1
53 | 137 °C | O=P(Oc1ccc(-c2ccccc2)cc1)(Oc1ccc(-c2ccccc2)cc1)Oc1ccc(-c2ccccc2)cc1
54 | 71 to 72 °C | CC(C)C(O)c1ccc(-c2ccc(Cl)cc2)cc1 (stereo unspecified)
55 | 146 to 148 °C | CNC(=S)C1=CC(C)(COC)Oc2ccc([N+](=O)[O-])cc21 (stereo unspecified)
56 | 275 °C | COc1ccc2c3c(nn(CCO)c13)-c1ccccc1N2
57 | 251 to 253 °C | Cc1ccc(-c2nc(C)c3c(=O)[nH]ncn23)cc1
58 | 236 to 238 °C | CCOC(=O)c1nn(-c2cccc(Cl)c2)c(=O)c2c1c1ccc(Cl)cc1n2C
59 | 110 to 111 °C | CC(C)CC(C(=O)O)c1cc(OCC2CC2)c(-c2ccc(C(F)(F)F)cc2)cc1F (stereo unspecified)
60 | 114 to 118 °C | CCOC(=O)NC(=S)C1=C(N2CCOCC2)CCC1
61 | 218 to 220 °C | COC(=O)C1=C(C)NC(C)=C(C(=O)OC)C1c1ccccc1CO
62 | 75 to 76 °C | CS(=O)c1ccc(CCCCCCCCCCC(Cl)(Cl)C(=O)O)cc1 (stereo unspecified)
63 | 85 to 90 °C | CCOC(=O)CN(Cc1cc(F)ccc1F)S(=O)(=O)c1ccc(N2CCC(NC[C@H](O)c3ccc(O)c(NS(C)(=O)=O)c3)CC2)cc1
64 | 108 to 110 °C | CC(C)(CCl)C(OC(=O)C(Cl)Cl)C(Oc1ccc(Cl)cc1)n1ccnc1 (stereo unspecified)
65 | 163 to 166 °C | CCC(O)(CC(=O)OC)c1cc2n(c(=O)c1COC)Cc1cc3ccccc3nc1-2 (stereo unspecified)
66 | 164 to 166 °C | CC(C)c1cc(C(C)C)c(CC(=O)NS(=O)(=O)Oc2c(C(C)C)cc(S(N)(=O)=O)cc2C(C)C)c(C(C)C)c1
67 | > 250 °C | O=C(Nc1cccc2c1ncc1c(=O)n3ccnc3sc12)c1c(Cl)cccc1Cl
68 | 83 °C | CCOC(=O)c1[nH]c2ccccc2c1CN(Cc1cc(C(F)(F)F)cc(C(F)(F)F)c1)c1nnn(C)n1
69 | 154 to 156 °C | COc1cc2c(cc1C(=O)c1cc(C(C)(C)C)c(O)c(C(C)(C)C)c1)CCC2
70 | 170 °C | CC(C)(CCl)C(O)C(=Cc1ccc(Cl)cc1)n1cncn1 (stereo unspecified)
71 | 163 to 164 °C | CC(=O)NCc1ccc(CN2CCN(c3ccc(F)cc3)CC2)cc1N
